Data on 26 molecules can be found in patent publication US9540323B2 (BRISTOL-MYERS SQUIBB COMPANY, priority 2012, dated 2017).

Assay [1] addresses cloned human P2Y1 receptors (Homo sapiens (Human), UniProt P47900). Briefly: Binding Assay B - Scintillation Proximity Assay (SPA) for P2Y1 binding, [33P] 2MeS-ADP. The settings on record: SPA, 0.3 nM [33P] 2MeS-ADP, Cheng-Prusoff; read-out: P2Y1 Ki (nM) using binding assay B. The protocol: Binding Assay B—Scintillation Proximity Assay (SPA) for P2Y1 Binding
A SPA membrane binding assay was used to identify inhibitors of [^33P] […] Reactions were allowed to proceed to completion at room temperature for 1 hour followed by centrifugation of the plate for 5 min. About 40 μL of the aqueous solution was aspirated. Plates were sealed and the [^33P]
(In general: Scintillation proximity formats need no separation of bound from free tracer.)

For assay [2], the system named is human platelet rich plasma (PRP). Briefly: ADP induced platelet aggregation assay. The settings on record: Homo sapiens, Platelet, 5 min, read-out: PA IC50 (μM) @ 10 μM ADP, human PRP, 10 μM ADP, AUC at 5 minute.
Experimental: The ability of P2Y1 antagonists covered in the present invention to inhibit platelet aggregation induced by 10 μM ADP was tested using human platelet rich plasma (PRP) as described in Platelet Protocols: Research and Clinical Laboratory Procedures (White, M. M. et al., Academic Press (1999)). Human blood was collected in 30 μM (final concentration in blood) argatroban (GSK) as the anticoagulant at a ratio of 1 mL per 9 mL of blood. The PRP was isolated by centrifugation at 170 g for 12 minutes. The platelet poor plasma (PPP) was used as the blank for optical aggregometry. Compounds of the present invention in DMSO solution was preincubated with 250 μL PRP at 37° C. for 1 minute with stirring speed of 1000 rpm. Aggregation was initiated by addition of 2.5 μL of 1 mM ADP (Chrono-log, Havertown, Pa.) for a final ADP concentration of 10 μM. Platelet aggregation was monitored using Optical Aggregometer (Chrono-log, Havertown, Pa.) and the area under the curve (AUC) at 5 minute was measured. IC50 was calculated using vehicle control as 0% inhibition.

Sequence of cloned human P2Y1 receptors (P47900 whole entry): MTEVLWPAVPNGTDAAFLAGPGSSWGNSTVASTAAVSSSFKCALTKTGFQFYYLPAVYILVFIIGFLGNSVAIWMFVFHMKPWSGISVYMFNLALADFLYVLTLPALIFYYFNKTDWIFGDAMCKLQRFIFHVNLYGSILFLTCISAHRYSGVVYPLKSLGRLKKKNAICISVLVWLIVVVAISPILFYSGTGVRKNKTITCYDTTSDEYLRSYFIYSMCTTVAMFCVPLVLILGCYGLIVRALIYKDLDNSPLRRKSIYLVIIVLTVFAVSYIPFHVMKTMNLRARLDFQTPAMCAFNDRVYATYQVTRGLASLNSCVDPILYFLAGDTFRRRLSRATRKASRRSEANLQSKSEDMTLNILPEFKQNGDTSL

By Ki is commonly meant the dissociation constant of the complex between target and ligand, obtained from inhibition or displacement. The term IC50 denotes the concentration needed to halve the response being measured. As for `CC1(C)CN(c2ccccc2NC(=O)Nc2ccc(OC(F)(F)F)cc2)c2c(O)ccc(-c3ccc(Cl)s3)c21` [Example 121, 1-(2-(4-(5-Chlorothiophen-2-yl)-7-hydroxy-3,3-dimethylindolin-1-yl)phenyl)-3-(4-(trifluoromethoxy)phenyl)urea], the Ki in assay [1] turned out to be 113 nM. For the same molecule, the IC50 in assay [2] was 0.2 µM.
For `CC1(C)CN(c2ccccc2NC(=O)NC2CCN(CC(F)(F)F)CC2)c2c(O)ccc(C(F)(F)F)c21` [Example 3, 1-(2-(7-Hydroxy-3,3-dimethyl-4-(trifluoromethyl)indolin-1-yl)phenyl)-3-(1-(2,2,2-trifluoroethyl)piperidin-4-yl)urea] the same measures were 4.9 nM and 3.1 µM.
For `Cc1noc(-c2ccc(O)c3c2C(C)(C)CN3c2ccccc2NC(=O)Nc2ccc(OC(F)(F)F)cc2)n1` [Example 97, 1-(2-(7-Hydroxy-3,3-dimethyl-4-(3-methyl-1,2,4-oxadiazol-5-yl)indolin-1-yl)phenyl)-3-(4-(trifluoromethoxy)phenyl)urea] the same measures were 20.7 nM and 1.52 µM.
For `CC(C)(C)c1ccc(-c2c(F)cc(O)c3c2C(C)(C)CN3c2ccccc2NC(=O)Nc2csc(C(F)(F)F)n2)cc1` [Example 243, 1-(2-(4-(4-(tert-Butyl)phenyl)-5-fluoro-7-hydroxy-3,3-dimethylindolin-1-yl)phenyl)-3-(2-(trifluoromethyl)thiazol-4-yl)urea] the same measures were 20.3 nM and 0.1 µM.
Take `CC1(C)CN(c2ccccc2NC(=O)Nc2csc(Cl)n2)c2c(O)cc(F)c(-c3ccc(Cl)cc3)c21` [Example 215, 1-(2-(4-(4-Chlorophenyl)-5-fluoro-7-hydroxy-3,3-dimethylindolin-1-yl)phenyl)-3-(2-chlorothiazol-4-yl)urea]: the Ki in assay [1] stood at 15 nM. The IC50 in assay [2] was determined as 0.14 µM.
For `CN(C)Cc1cccc(-c2c(F)cc(O)c3c2C(C)(C)CN3c2ccccc2NC(=O)Nc2ccc(OC(F)(F)F)cc2)c1` [Example 249, 1-(2-(4-(3-((Dimethylamino)methyl)phenyl)-5-fluoro-7-hydroxy-3,3-dimethylindolin-1-yl)phenyl)-3-(4-(trifluoromethoxy)phenyl)urea] the same measures were 12.2 nM and 0.7 µM.
With `CC1(C)CN(c2ccccc2NC(=O)Nc2nc3ccc(Cl)cc3s2)c2c(O)cc(F)c(Br)c21` [Example 70, 1-(2-(4-Bromo-5-fluoro-7-hydroxy-3,3-dimethylindolin-1-yl)phenyl)-3-(6-chlorobenzo[d]thiazol-2-yl)urea], in assay [1], the Ki amounted to 31.3 nM. In addition, in assay [2], the IC50 worked out at 0.78 µM.
For `CC1(C)CN(c2ccccc2NC(=O)Nc2ccc(OC(F)(F)F)cc2)c2c(O)cc(F)c(-c3ccc(F)nc3)c21` [Example 188, 1-(2-(5-Fluoro-4-(6-fluoropyridin-3-yl)-7-hydroxy-3,3-dimethylindolin-1-yl)phenyl)-3-(4-(trifluoromethoxy)phenyl)urea] the same measures were 4.7 nM and 0.38 µM.
For `CC1(C)CN(c2ccccc2NC(=O)Nc2ccc(OC(F)(F)F)cc2)c2c(O)c(F)cc(Cl)c21` [Example 65, 1-(2-(4-Chloro-6-fluoro-7-hydroxy-3,3-dimethylindolin-1-yl)phenyl)-3-(4-(trifluoromethoxy)phenyl)urea], in assay [1], the Ki amounted to 14.1 nM. Also, in assay [2], the IC50 amounted to 0.83 µM.
For `CCOC(=O)C1(C)CN(c2ccccc2NC(=O)Nc2nc3ccc(Cl)nc3s2)c2c(O)ccc(Cl)c21` (stereo not shown) [Example 77, Ethyl 4-chloro-1-(2-(3-(5-chlorothiazolo[5,4-b]pyridin-2-yl)ureido)phenyl)-7-hydroxy-3-methylindoline-3-carboxylate] the same measures were 12.9 nM and 0.61 µM.
With `CCC1(CC)CN(c2ccccc2NC(=O)Nc2csc(Cl)n2)c2c(O)ccc(Cl)c21` [Example 53, 1-(2-(4-Chloro-3,3-diethyl-7-hydroxyindolin-1-yl)phenyl)-3-(2-chlorothiazol-4-yl)urea], the Ki in assay [1] was found to be 5 nM. In addition, the IC50 in assay [2] was 0.28 µM.
For `CC(C)(C)c1ncc(-c2c(F)cc(O)c3c2C(C)(C)CN3c2ccccc2NC(=O)Nc2ccc(OC(F)(F)F)cc2)cn1` [Example 160, 1-(2-(4-(2-(tert-Butyl)pyrimidin-5-yl)-5-fluoro-7-hydroxy-3,3-dimethylindolin-1-yl)phenyl)-3-(4-(trifluoromethoxy)phenyl)urea] the same measures were 13.1 nM and 0.09 µM.
`CC1(C)CN(c2ccccc2NC(=O)Nc2ccc(OC(F)(F)F)cc2)c2c(O)ccc(-c3cc(F)cc(F)c3)c21` [Example 197, 1-(2-(4-(3,5-Difluorophenyl)-7-hydroxy-3,3-dimethylindolin-1-yl)phenyl)-3-(4-(trifluoromethoxy)phenyl)urea]: the Ki in assay [1] is 5.1 nM. Also, the IC50 in assay [2] came to 0.18 µM.
For `CC1(C)CN(c2ccccc2NC(=O)Nc2csc(Cl)n2)c2c(O)ccc(C(F)(F)F)c21` [Example 16, 1-(2-Chlorothiazol-4-yl)-3-(2-(7-hydroxy-3,3-dimethyl-4-(trifluoromethyl)indolin-1-yl)phenyl)urea] the same measures were 6.2 nM and 0.12 µM.
For `CC1(C)CN(c2ccccc2NC(=O)Nc2nc3ccc(Cl)cc3s2)c2c(O)ccc(-c3ccc(F)cc3)c21` [Example 199, 1-(6-Chlorobenzo[d]thiazol-2-yl)-3-(2-(4-(4-fluorophenyl)-7-hydroxy-3,3-dimethylindolin-1-yl)phenyl)urea] the same measures were 10.1 nM and 0.18 µM.
For `CCN1CCc2nc(NC(=O)Nc3ccccc3N3CC(C)(C)c4c(C(F)(F)F)ccc(O)c43)sc2C1` [Example 20, 1-(5-Ethyl-4,5,6,7-tetrahydrothiazolo[5,4-c]pyridin-2-yl)-3-(2-(7-hydroxy-3,3-dimethyl-4-(trifluoromethyl)indolin-1-yl)phenyl)urea] the same measures were 18.6 nM and 0.95 µM.
Consider `CCC1(CC)CN(c2ccccc2NC(=O)Nc2ccc(C3CCN(CC(C)(C)C)CC3)cc2)c2c(O)ccc(C(F)(F)F)c21` [Example 25, 1-(2-(3,3-Diethyl-7-hydroxy-4-(trifluoromethyl)indolin-1-yl)phenyl)-3-(4-(1-neopentylpiperidin-4-yl)phenyl)urea], for which the Ki in assay [1] stood at 6.3 nM. Moreover, the IC50 in assay [2] stood at 0.26 µM.
Turning to `Cc1nc(NC(=O)Nc2ccccc2N2CC(C)(C)c3c(-c4ccc(F)cc4)ccc(O)c32)cs1` [Example 201, 1-(2-(4-(4-Fluorophenyl)-7-hydroxy-3,3-dimethylindolin-1-yl)phenyl)-3-(2-methylthiazol-4-yl)urea], the Ki in assay [1] came to 5.8 nM. In addition, the IC50 in assay [2] was 0.43 µM.
In the same order, the values of `CC1(C)CN(c2ccccc2NC(=O)Nc2ccc(OC(F)(F)F)cc2)c2c(O)ccc(-c3cncc(F)c3)c21` [Example 117, 1-(2-(4-(5-Fluoropyridin-3-yl)-7-hydroxy-3,3-dimethylindolin-1-yl)phenyl)-3-(4-(trifluoromethoxy)phenyl) urea] are 36 nM and 0.51 µM.
For `CCC1(CC)CN(c2ccccc2NC(=O)Nc2ccc(OC(F)(F)F)cc2)c2c1ccc(F)c2O` [Example 35, 1-(2-(3,3-Diethyl-6-fluoro-7-hydroxyindolin-1-yl)phenyl)-3-(4-(trifluoromethoxy)phenyl)urea] the same measures were 13.8 nM and 0.38 µM.
`CC(C)n1nc(-c2c(F)cc(O)c3c2C(C)(C)CN3c2ccccc2NC(=O)Nc2csc(C(F)(F)F)n2)cc1C(F)(F)F` [Example 272, 1-(2-(5-Fluoro-7-hydroxy-4-(1-isopropyl-5-(trifluoromethyl)-1H-pyrazol-3-yl)-3,3-dimethylindolin-1-yl)phenyl)-3-(2-(trifluoromethyl)thiazol-4-yl)urea]: the Ki in assay [1] was determined as 16.7 nM. Besides, the half-maximal inhibitory concentration (IC50) in assay [2] was 0.18 µM.
In the same order, the values of `CC1(C)CN(c2ccccc2NC(=O)Nc2ccc(OC(F)(F)F)cc2)c2c(O)ccc(-c3nc4cccnc4o3)c21` [Example 89, 1-(2-(7-Hydroxy-3,3-dimethyl-4-(oxazolo[5,4-b]pyridin-2-yl)indolin-1-yl)phenyl)-3-(4-(trifluoromethoxy)phenyl)urea] are 12.3 nM and 0.99 µM.
In the same order, the values of `CC1(C)CN(c2ccccc2NC(=O)Nc2ccc(OC(F)(F)F)cc2)c2c(O)ccc(-c3ccccc3F)c21` [Example 207, 1-(2-(4-(2-Fluorophenyl)-7-hydroxy-3,3-dimethylindolin-1-yl)phenyl)-3-(4-(trifluoromethoxy)phenyl)urea] are 8.7 nM and 0.08 µM.
For `CC1(C)CN(c2ccccc2NC(=O)Nc2ccc(OC(F)(F)F)cc2)c2c(O)cc(F)c(-c3ccc(C#N)cc3)c21` [Example 248, 1-(2-(4-(4-Cyanophenyl)-5-fluoro-7-hydroxy-3,3-dimethylindolin-1-yl)phenyl)-3-(4-(trifluoromethoxy)phenyl)urea] the same measures were 7.4 nM and 0.43 µM.
In the case of `CC1(C)CN(c2ccccc2NC(=O)Nc2ccc(OC(F)(F)F)cc2)c2c(O)c(F)cc(-c3nc4ccc(Cl)cc4s3)c21` [Example 130, 1-(2-(4-(6-Chlorobenzo[d]thiazol-2-yl)-6-fluoro-7-hydroxy-3,3-dimethylindolin-1-yl)phenyl)-3-(4-(trifluoromethoxy)phenyl)urea], the Ki in assay [1] was 93.5 nM. Also, the IC50 in assay [2] came to 1.8 µM.
Take `CCC1(CC)CN(c2ccccc2NC(=O)Nc2ccc(C(C)(C)C)cc2)c2c(O)ccc(F)c21` [Example 26, 1-(4-tert-Butylphenyl)-3-(2-(3,3-diethyl-4-fluoro-7-hydroxyindolin-1-yl)phenyl)urea]: the Ki in assay [1] is 5.1 nM. Besides, the IC50 in assay [2] turned out to be 0.98 µM.
